Data published in ChEMBL document CHEMBL6177939, “The role of silicon in drug discovery: a review” (RSC Med Chem, 2024).
≈ marks a conversion by molar mass, not a printed value.

Columns and labels:
[1] = molecular target: Hydroxycarboxylic acid receptor 2 (Rattus norvegicus, UniProt Q80Z39); test: Agonist activity at rat GPR109A transfected in T-REX-CHO cells by cAMP assay; assay type: cell-based
[2] = Agonist activity at rat GPR81 transfected in T-REX-CHO cells by cAMP assay; assay type: cell-based
[3] = tested on: Staphylococcus epidermidis; test: Antibacterial activity against Staphylococcus epidermidis assessed as inhibition of bacterial growth incubated for 24 hrs by nutrient agar plate method; assay type: functional
MG-22A [4] = test: Cytotoxicity against mouse MG-22A cells assessed as reduction in cell growth measured for 72 hrs by crystal violet staining based analysis; assay type: functional
HT-1080 [5] = test: Cytotoxicity against human HT-1080 cells assessed as reduction in cell growth measured for 72 hrs by crystal violet staining based analysis; assay type: functional; settings: HT-1080, 72 h
MG-22A [6] = test: Cytotoxicity against mouse MG-22A cells assessed as reduction in cell growth by measuring lethal concentration for 72 hrs by MTT assay; assay type: functional
HT-1080 [7] = test: Cytotoxicity against human HT-1080 cells assessed as reduction in cell growth by measuring lethal concentration for 72 hrs by MTT assay; assay type: functional
Escherichia coli [8] = test: Antibacterial activity against Escherichia coli assessed as reduction in bacterial growth incubated for 12 hrs by broth micr-dilution method; assay type: functional
Staphylococcus aureus [9] = test: Antibacterial activity against Staphylococcus aureus assessed as reduction in bacterial growth incubated for 12 hrs by broth micr-dilution method; assay type: functional
Vibrio cholerae = test: Antibacterial activity against Vibrio cholerae assessed as inhibition of bacterial growth; assay type: functional
Bacillus subtilis = test: Antibacterial activity against Bacillus subtilis assessed as reduction in bacterial growth incubated for 12 hrs by broth micr-dilution method; assay type: functional
[10] = tested on: Panel NCI-60 (60 carcinoma cell lines); test: Cytotoxicity against human Panel NCI-60 (60 carcinoma cell lines) assessed as reduction in cell growth incubated for 72 hrs by CCK-8 assay; assay type: functional, cell-based
Rhizoctonia solani = test: Antifungal activity against Rhizoctonia solani assessed as inhibition of fungal growth at 1 microg/ml relative to control; assay type: functional
[11] = tested on: Human immunodeficiency virus 2; test: Antiviral activity against HIV-2 ROD infected in human MT-4 cells assessed as reduction in virus-induced cytopathic effect incubated for 5 days by spectrophotometric based MTT assay; assay type: functional, organism-based; settings: Human immunodeficiency virus 2, ROD, MT4, 120 h
Salmonella typhimurium = test: Antibacterial activity against Salmonella enterica subsp. enterica serovar Typhimurium PTCC 1609 assessed as reduction in cell growth incubated for 24 hrs by Mueller-Hinton Broth micro dilution method; assay type: functional
Staphylococcus aureus [12] = test: Antibacterial activity against Staphylococcus aureus PTCC 1112 assessed as reduction in cell growth incubated for 24 hrs by Mueller-Hinton Broth micro dilution method; assay type: functional
Escherichia coli [13] = test: Antibacterial activity against Escherichia coli PTCC 1330 assessed as reduction in cell growth incubated for 24 hrs by Mueller-Hinton Broth micro dilution method; assay type: functional
Pseudomonas aeruginosa = test: Antibacterial activity against Pseudomonas aeruginosa PTCC 1074 assessed as reduction in cell growth incubated for 24 hrs by Mueller-Hinton Broth micro dilution method; assay type: functional
[14] = molecular target: Sigma non-opioid intracellular receptor 1 (Cavia porcellus, UniProt Q60492); test: Binding affinity to guinea pig sigma 1 receptor assessed as inhibition constant
Sequence of Sigma non-opioid intracellular receptor 1 (Q60492 whole entry): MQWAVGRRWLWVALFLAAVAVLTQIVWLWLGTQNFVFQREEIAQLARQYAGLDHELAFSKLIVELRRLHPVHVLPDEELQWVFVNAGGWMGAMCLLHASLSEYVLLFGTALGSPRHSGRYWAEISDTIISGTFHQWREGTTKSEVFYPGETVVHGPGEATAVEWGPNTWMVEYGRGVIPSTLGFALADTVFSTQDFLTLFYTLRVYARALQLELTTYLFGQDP

Sequence of Hydroxycarboxylic acid receptor 2 (Q80Z39 whole entry): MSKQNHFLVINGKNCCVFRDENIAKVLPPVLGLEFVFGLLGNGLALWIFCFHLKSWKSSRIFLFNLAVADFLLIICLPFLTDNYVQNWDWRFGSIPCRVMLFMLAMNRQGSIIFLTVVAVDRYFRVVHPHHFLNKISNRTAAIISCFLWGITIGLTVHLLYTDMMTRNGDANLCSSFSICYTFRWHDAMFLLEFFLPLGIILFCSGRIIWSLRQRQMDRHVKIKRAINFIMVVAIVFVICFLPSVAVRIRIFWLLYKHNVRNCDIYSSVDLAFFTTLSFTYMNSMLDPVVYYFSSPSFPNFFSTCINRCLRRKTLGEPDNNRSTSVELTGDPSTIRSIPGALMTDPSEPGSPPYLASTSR

With `CCC[Si]1(c2c(OC)cccc2OC)CCc2nc(NC(=O)NC(=O)c3cc(-n4cccn4)c(OCC)cc3Cl)sc2C1` (stereo unspecified) the EC50 [1] was 470 nM and the EC50 [2] was 210 nM.

With `CC(C)[Si](c1cccc(CN(Cc2ccccn2)Cc2ccccn2)c1O)(C(C)C)C(C)C` the MIC [3] was 1.2 µg/mL (≈ 2.6 µM).

For `C[Si](C)(C)c1cccc(CN(Cc2ccccn2)Cc2ccccn2)c1O`, the MIC [3] was 1.2 µg/mL (≈ 3.18 µM).

Work on `CCOc1cc(Cl)c(C(=O)NC(=O)Nc2nc3c(s2)CCCC3)cc1N1CCOCC1` yielded an EC50 [2] of 240 nM.

`CC[Si](CC)(CC)c1cccc(CN(Cc2ccccn2)Cc2ccccn2)c1O` gave an MIC [3] of 1.2 µg/mL (≈ 2.86 µM).

`CN1CCN(CCC[Si](C)(c2ccc([Si](C)(C)C)o2)c2ccc([Si](C)(C)C)o2)CC1` showed an IC50 (MG-22A [4]) of 3 µg/mL (≈ 6.48 µM) and an IC50 (HT-1080 [5]) of 3 µg/mL (≈ 6.48 µM).

For `CC(C)(C)[Si](c1ccccc1)(c1ccccc1)c1cccc(CN(Cc2ccccn2)Cc2ccccn2)c1O`, the MIC [3] was 1.2 µg/mL (≈ 2.21 µM).

In the case of `CCCCCCCCCCCCCCCC[Si](C)(C)OCC[N+]1(C)CCc2ccccc2C1.[I-]` (stereo unspecified), the LC50 (MG-22A [6]) is reported as 1 µg/mL and the LC50 (HT-1080 [7]) is reported as < 1 µg/mL.

With `C[Si](C)(C)c1ccc([Si](C)(CCCN2CCCCC2)c2ccc([Si](C)(C)C)o2)o1` the IC50 (MG-22A [4]) was 3 µg/mL (≈ 6.7 µM) and the IC50 (HT-1080 [5]) was 3 µg/mL (≈ 6.7 µM).

In the case of `C[Si](C)(C)c1ccc([Si](C)(CCCN2CCOCC2)c2ccc([Si](C)(C)C)o2)o1`, the IC50 (MG-22A [4]) is reported as 3 µg/mL (≈ 6.67 µM) and the IC50 (HT-1080 [5]) is reported as 3 µg/mL (≈ 6.67 µM).

`Cc1cc(=O)n(Cc2cn(CCC[Si-]345OCC[N+]3(CCO4)CCO5)nn2)c(=O)n1Cc1cn(CCC[Si-]234OCC[N+]2(CCO3)CCO4)nn1` (stereo unspecified) showed an MIC50 (Escherichia coli [8]) of 0.18 µg/mL (≈ 0.25 µM), an MIC50 (Staphylococcus aureus [9]) of 0.18 µg/mL (≈ 0.25 µM) and an MIC50 (Vibrio cholerae) of 0.18 µg/mL (≈ 0.25 µM). For the same compound, the MIC50 (Bacillus subtilis) was 0.18 µg/mL (≈ 0.25 µM).

With `CC1(C)CC(NC(=O)[C@H](Cc2ccc(OCc3c(Cl)cccc3Cl)cc2)NC(=O)c2ccc(OCC[Si](C)(C)C)cc2)CC(C)(C)N1` the IC50 [10] was 1500 nM.

Compound `C[Si](CCCN1CCOCC1)(c1ccco1)c1ccco1` has an IC50 (MG-22A [4]) of 38 µg/mL (≈ 124 µM) and an IC50 (HT-1080 [5]) of 100 µg/mL (≈ 327 µM).

Compound `CC(C)(C)[Si](C)(C)c1cccc(CN(Cc2ccccn2)Cc2ccccn2)c1O` has an MIC [3] of 1.2 µg/mL (≈ 2.86 µM).

With `CC1(C)CC(NC(=O)[C@H](Cc2ccc(-c3ccccc3)cc2)NC(=O)c2ccc(OCC[Si](C)(C)C)cc2)CC(C)(C)N1` the IC50 [10] was 1500 nM.

For `CCCCCCC[Si](C)(C)OCC[N+]1(C)CCc2ccccc2C1.[I-]` (stereo unspecified), the LC50 (MG-22A [6]) was 1 µg/mL and the LC50 (HT-1080 [7]) was < 1 µg/mL.

For `Cn1cc(C(=O)C(C#N)c2cccc([Si](C)(C)C)c2)c(C(F)F)n1` (stereo unspecified), the inhibition at 1 µg/mL (Rhizoctonia solani) was 91.2%.

With `Cn1cc(C(=O)C(C#N)c2ccc([Si](C)(C)C)cc2F)c(C(F)F)n1` (stereo unspecified) the inhibition at 1 µg/mL (Rhizoctonia solani) was 91.2%.

Compound `CCOc1cc(Cl)c(C(=O)NC(=O)Nc2nc3c(s2)C[Si](C)(c2c(OC)cccc2OC)CC3)cc1-n1cccn1` (stereo unspecified) has an EC50 [1] of 470 nM and an EC50 [2] of 210 nM.

In the case of `Cc1cn([C@@H]2O[C@H](CO[Si](C)(C)C(C)(C)C)[C@@]3(OS(=O)(=O)C=C3N)[C@H]2O)c(=O)[nH]c1=O`, the EC50 [11] is reported as > 100 µg/mL.

For `CC[Si](CC)(CC)OCC[N+]1(C)CCc2ccccc2C1.[I-]` (stereo unspecified), the LC50 (MG-22A [6]) was 2 µg/mL and the LC50 (HT-1080 [7]) was < 1 µg/mL.

For `CCC[Si](C)(C)Oc1ccc(C(=O)N[C@@H](Cc2ccc(OCc3c(Cl)cccc3Cl)cc2)C(=O)NC2CC(C)(C)NC(C)(C)C2)cc1`, the IC50 [10] was 1500 nM.

`CCOP(=O)(OCC)C(NC(=O)[C@H](Cc1ccc(-c2ccccc2)cc1)NC(=O)c1ccc(OCC[Si](C)(C)C)cc1)P(=O)(OCC)OCC` showed an IC50 [10] of 1500 nM.

Work on `CCOc1cc(Cl)c(C(=O)NC(=O)Nc2nc3c(s2)C[Si](c2ccccc2)(c2c(OC)cccc2OC)CC3)cc1-n1cccn1` (stereo unspecified) yielded an EC50 [1] of 470 nM and an EC50 [2] of 210 nM.

`CCOc1cc(Cl)c(C(=O)NC(=O)Nc2nc3c(s2)C[Si](C)(C)CC3)cc1N1CCOCC1` gave an EC50 [1] of 1200 nM and an EC50 [2] of 1000 nM.

Compound `C[Si](C)(C)C(S)(C(=S)CCCCn1nnc(SCc2ccccc2)n1)[Si](C)(C)C` has an MIC (Salmonella typhimurium) of 3.91 µg/mL (≈ 8.1 µM), an MIC (Staphylococcus aureus [12]) of 3.91 µg/mL (≈ 8.1 µM) and an MIC (Escherichia coli [13]) of 3.91 µg/mL (≈ 8.1 µM). For the same compound, the MIC (Pseudomonas aeruginosa) was 3.91 µg/mL (≈ 8.1 µM).

`CC(=O)Nc1ccn([C@@H]2O[C@H](CO[Si](C)(C)C(C)(C)C)[C@@]3(OS(=O)(=O)C=C3N)[C@H]2O[Si](C)(C)C(C)(C)C)c(=O)n1` gave an EC50 [11] of 0.097 µg/mL (≈ 0.157 µM).

In the case of `CCCCCCCC[Si](C)(C)OCC[N+]1(C)CCc2ccccc2C1.[I-]` (stereo unspecified), the LC50 (MG-22A [6]) is reported as 1 µg/mL and the LC50 (HT-1080 [7]) is reported as < 1 µg/mL.

For `CCOc1cc(Cl)c(C(=O)NC(=O)Nc2nc3c(s2)C[Si](C)(c2ccc(OC)cc2)CC3)cc1-n1cccn1` (stereo unspecified), the EC50 [1] was 470 nM and the EC50 [2] was 210 nM.

`CCC[Si]1(c2ccc(OC)cc2)CCc2nc(NC(=O)NC(=O)c3cc(-n4cccn4)c(OCC)cc3Cl)sc2C1` (stereo unspecified) showed an EC50 [1] of 470 nM and an EC50 [2] of 210 nM.

`c1ccc(CN2CC[Si]3(CCCc4ccccc43)CC2)cc1` showed a Ki [14] of 300 nM.
